Assay results published in patent US8840931B2, “Pharmaceutical compositions for dehydrating, atrophying and eliminating pathological tissues” (priority 2008, dated 2014).

Columns and labels:
[1] = system: related diseases; assay: Clinical experiment observations (overall statement); conditions: human, in vivo
[2] = system: bleeding wounds; assay: Treatment of bleeding wounds for hemostasis; type: in vivo; conditions: used for hemostasis
From the text: The inventors determined that the mechanism of this phenomenon was the dehydration, atrophy, and elimination of blood and blood tissues, rather than the well-known mechanism of an astringent of Monsell in the literature in which hemostasis was caused by forming a thrombus of blood platelet and fibrin, aggregation of erythrocyte, and accelerated coagulation of blood.

ferric subsulfate
clinical use to treat related diseases [1]: successfully used | observation on bleeding wounds [2]: formation of black solid particulate matter was observed
